Assay results as given in patent publication US12497402B2, “IRAK4 degraders and uses thereof” (priority 2021, dated 2025).
Several values for one entry are separate records, joined by “and”; a condition that tells them apart may be missing. Equal values may be shown once.

Legend:
[1] = 4-week oral gavage toxicokinetic study with Compound A in dogs (plasma); conditions: dog
Description: The vehicle was HPBCD (Kleptose Oral Grade HPB) prepared in reverse osmosis water.
Assessment of toxicity was based on mortality, clinical observations, body weights, food consumption, ophthalmic observations, electrocardiographic (ECG) measurements, and clinical and anatomic pathology. Blood samples were collected for toxicokinetic evaluation.

Permeability = format: in vitro ADME
[2] = Distribution studies in rats; format: in vivo, rat
P-glycoprotein (P-gp) = P-glycoprotein (P-gp) (Homo sapiens, UniProt P08183); test: P-gp substrate assessment in vitro; format: in vitro ADME
Sequence of P-glycoprotein (P-gp) (P08183 whole entry): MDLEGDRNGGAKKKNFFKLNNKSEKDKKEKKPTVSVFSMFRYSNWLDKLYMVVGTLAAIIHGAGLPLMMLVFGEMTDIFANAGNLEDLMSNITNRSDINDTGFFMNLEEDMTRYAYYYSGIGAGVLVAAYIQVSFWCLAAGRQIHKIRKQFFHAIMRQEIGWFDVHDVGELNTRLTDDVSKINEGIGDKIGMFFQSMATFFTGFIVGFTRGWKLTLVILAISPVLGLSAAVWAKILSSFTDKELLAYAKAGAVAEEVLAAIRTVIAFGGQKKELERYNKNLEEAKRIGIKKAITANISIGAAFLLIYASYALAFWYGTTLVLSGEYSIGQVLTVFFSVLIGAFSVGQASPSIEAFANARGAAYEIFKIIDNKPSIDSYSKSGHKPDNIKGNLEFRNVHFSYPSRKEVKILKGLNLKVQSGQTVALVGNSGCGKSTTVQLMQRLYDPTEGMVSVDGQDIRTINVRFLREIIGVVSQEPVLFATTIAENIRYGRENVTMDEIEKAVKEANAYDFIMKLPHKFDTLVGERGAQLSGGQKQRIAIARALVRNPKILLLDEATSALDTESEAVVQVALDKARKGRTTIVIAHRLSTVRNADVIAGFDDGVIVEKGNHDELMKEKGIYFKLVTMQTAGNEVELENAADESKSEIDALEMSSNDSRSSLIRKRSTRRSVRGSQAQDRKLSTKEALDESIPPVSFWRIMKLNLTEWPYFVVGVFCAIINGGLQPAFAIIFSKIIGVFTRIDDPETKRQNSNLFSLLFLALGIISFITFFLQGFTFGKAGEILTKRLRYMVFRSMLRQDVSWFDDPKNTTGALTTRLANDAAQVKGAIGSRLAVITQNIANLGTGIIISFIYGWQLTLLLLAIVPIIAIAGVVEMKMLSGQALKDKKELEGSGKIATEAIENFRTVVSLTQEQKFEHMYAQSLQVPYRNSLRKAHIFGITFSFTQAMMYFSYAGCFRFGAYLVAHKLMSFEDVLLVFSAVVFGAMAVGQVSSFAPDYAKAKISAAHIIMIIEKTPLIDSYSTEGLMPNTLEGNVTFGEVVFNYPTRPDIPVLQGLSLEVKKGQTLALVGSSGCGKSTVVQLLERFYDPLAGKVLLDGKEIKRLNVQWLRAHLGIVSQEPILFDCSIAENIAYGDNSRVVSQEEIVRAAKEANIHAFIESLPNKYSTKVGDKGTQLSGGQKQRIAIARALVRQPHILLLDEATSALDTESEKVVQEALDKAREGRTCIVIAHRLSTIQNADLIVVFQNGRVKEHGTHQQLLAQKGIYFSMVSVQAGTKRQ

[3] = In vivo pharmacokinetic studies in rats, dogs and monkeys
[4] = tested on: imiquimod psoriasis model (TLR 7/8-dependent); test: Imiquimod psoriasis model; format: in vivo, mouse
[5] = biological target: T1, breast cancer resistance protein (BCRP) (Homo sapiens, UniProt Q9UNQ0); test: BCRP substrate assessment in vitro; format: in vitro ADME
T1 sequence (Q9UNQ0 1-655): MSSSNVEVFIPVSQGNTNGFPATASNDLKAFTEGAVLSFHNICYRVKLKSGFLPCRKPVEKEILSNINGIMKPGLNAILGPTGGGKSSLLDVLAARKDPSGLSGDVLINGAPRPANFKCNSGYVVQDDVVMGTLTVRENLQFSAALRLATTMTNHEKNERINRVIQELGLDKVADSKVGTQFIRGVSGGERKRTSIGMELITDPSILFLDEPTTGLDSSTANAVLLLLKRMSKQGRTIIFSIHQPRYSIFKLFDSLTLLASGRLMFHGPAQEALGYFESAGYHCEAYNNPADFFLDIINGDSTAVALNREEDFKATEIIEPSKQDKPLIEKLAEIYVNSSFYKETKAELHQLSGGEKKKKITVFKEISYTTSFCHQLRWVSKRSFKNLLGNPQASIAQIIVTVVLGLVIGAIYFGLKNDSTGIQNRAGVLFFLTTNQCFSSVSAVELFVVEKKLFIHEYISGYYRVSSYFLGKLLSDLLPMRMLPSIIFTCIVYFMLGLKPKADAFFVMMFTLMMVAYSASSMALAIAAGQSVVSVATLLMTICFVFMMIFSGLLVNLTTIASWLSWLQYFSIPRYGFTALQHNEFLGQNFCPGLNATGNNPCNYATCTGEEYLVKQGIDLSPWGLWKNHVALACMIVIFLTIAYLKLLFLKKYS

[6] = tested on: TLR agonist (lipopolysaccharide and R848) and IL-1β-induced proinflammatory cytokine production; test: In vitro cytokine release assays in PBMCs; format: cell-based; conditions: R848 and IL-1β stimulation, IL-6, TNF-α, GM-CSF, IL-8
cytochrome P450 (CYP) = test: In vitro and in vivo metabolism studies; format: in vitro ADME
CYP2C19 = CYP2C19 (Homo sapiens, UniProt P33261); test: In vitro drug-drug interaction study, CYP2C19; format: in vitro ADME
Sequence of CYP2C19 (P33261 whole entry): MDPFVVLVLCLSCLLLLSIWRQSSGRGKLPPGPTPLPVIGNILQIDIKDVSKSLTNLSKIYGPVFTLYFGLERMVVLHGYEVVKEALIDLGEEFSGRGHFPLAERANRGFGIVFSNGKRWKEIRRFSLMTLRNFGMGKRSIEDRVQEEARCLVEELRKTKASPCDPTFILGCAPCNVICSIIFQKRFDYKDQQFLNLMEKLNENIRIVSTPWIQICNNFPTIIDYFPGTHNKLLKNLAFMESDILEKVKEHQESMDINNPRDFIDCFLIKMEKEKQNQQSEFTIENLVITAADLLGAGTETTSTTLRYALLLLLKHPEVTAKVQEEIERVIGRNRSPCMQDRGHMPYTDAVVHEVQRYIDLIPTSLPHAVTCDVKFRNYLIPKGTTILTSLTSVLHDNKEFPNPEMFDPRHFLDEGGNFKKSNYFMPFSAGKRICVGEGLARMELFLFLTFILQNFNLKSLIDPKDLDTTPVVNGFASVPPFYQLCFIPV

CYP3A4 = CYP3A4 (Homo sapiens, UniProt P08684); test: In vitro drug-drug interaction study, CYP3A4; format: in vitro ADME
Sequence of CYP3A4 (P08684 whole entry): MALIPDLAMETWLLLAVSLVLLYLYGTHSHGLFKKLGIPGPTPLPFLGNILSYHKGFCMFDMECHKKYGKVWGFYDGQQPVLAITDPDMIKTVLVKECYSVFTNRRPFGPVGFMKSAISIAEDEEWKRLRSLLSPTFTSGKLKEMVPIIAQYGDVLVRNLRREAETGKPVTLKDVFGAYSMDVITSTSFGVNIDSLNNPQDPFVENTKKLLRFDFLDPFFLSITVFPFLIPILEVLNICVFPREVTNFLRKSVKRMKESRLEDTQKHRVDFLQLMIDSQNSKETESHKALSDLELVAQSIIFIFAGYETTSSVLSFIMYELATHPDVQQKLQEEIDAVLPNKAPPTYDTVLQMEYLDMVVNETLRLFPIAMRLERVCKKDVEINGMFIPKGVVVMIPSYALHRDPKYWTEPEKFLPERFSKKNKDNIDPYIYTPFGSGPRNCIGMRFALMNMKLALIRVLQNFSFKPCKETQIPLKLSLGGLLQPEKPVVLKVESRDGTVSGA

[7] = Red blood cell partitioning; format: in vitro ADME
[8] = 4-week oral gavage toxicity study with Compound A in dogs with 2-week recovery; format: in vivo; conditions: for Reversal of vacuolated macrophages at recovery sacrifice: 30 or 200/60 mg/kg/dose
Plasma protein binding = format: in vitro ADME; conditions: across nonclinical species and humans
[9] = tested on: MSU-crystal induced (TLR 2/4-dependent) inflammation; test: Mouse air pouch model of MSU-crystal induced inflammation; format: in vivo; conditions: 3 days twice daily, 30 to 100 mg/kg
[10] = Excretion study in bile duct-cannulated (BDC) rats; format: in vivo, rat
Solubility = format: physicochemical
BCRP = biological target: T2, BCRP (Homo sapiens, UniProt Q9UNQ0); test: In vitro drug-drug interaction study, BCRP efflux; format: in vitro ADME
T2 sequence (Q9UNQ0 1-655): T1 sequence (Q9UNQ0 1-655)

[11] = both, beagle, in vivo, po, 5 mg/kg, Tmax
[12] = both, beagle, in vivo, po, 30 mg/kg, Tmax
[13] = both, beagle, in vivo, po, 60 mg/kg, Tmax
[14] = both, beagle, in vivo, po, 60 mg/kg/day, median Tmax
[15] = both, beagle, in vivo, po, 100 mg/kg, Tmax
[16] = both, beagle, in vivo, po, 200 mg/kg, Tmax
[17] = both, beagle, in vivo, po, median Tmax
[18] = both, beagle, in vivo, po, 5 mg/kg, t1/2

With `Cn1c(=O)n(C2CCC(=O)NC2=O)c2cccc(C#CCOC3CCN(C[C@H]4CC[C@H](n5cc(NC(=O)c6cnn7ccc(N8C[C@H]9C[C@@H]8CO9)nc67)c(C(F)F)n5)CC4)CC3)c21` (stereo partly drawn) [Compound A, 5-((1R,4R)-2-oxa-5-azabicyclo[2.2.1]heptan-5-yl)-N-(3-(difluoromethyl)-1-((1r,4R)-4-((4-((3-(1-(2,6-dioxopiperidin-3-yl)-3-methyl-2-oxo-2,3-dihydro-1H-benzo[d]imidazol-4-yl)prop-2-yn-1-yl)oxy)piperidin-1-yl)methyl)cyclohexyl)-1H-pyrazol-4-yl)pyrazolo[1,5-a]pyrimidine-3-carboxamide] the half-life ([1]; beagle, plasma, po, 30 mg/kg, t1/2, elimination half-life, N = 1, dog plasma, Day 1, Group 3, Cmpd A 30 mg/kg/dose oral gavage) was 6.54 h, the “Potential accumulation after multiple doses” value (“Potential accumulation” for short) ([1]; both, beagle, in vivo) was “up to 2.14 fold” and the “Sex differences in mean Cmax and AUC0-24 values” (“Sex differences” for short) ([1]; both, beagle, in vivo) was “less than 2 fold”. For the same compound, the “median Tmax” value ([1]; both, beagle, in vivo, po) was 5.00 to 12.0 h, the Tmax [1, 11] was 4 h and the Tmax [1, 12] was 5 h and 4 h. For the same compound, the Tmax [1, 13] was 6 h, the Tmax [1, 14] was 6 h and the Tmax [1, 15] was 9 h. The Tmax [1, 16] was 12 h, the Tmax [1, 17] was 5 to 9 h and the half-life ([1]; both, beagle, plasma, po, 5 mg/kg, t1/2, mean elimination half-life, dog plasma, Day 1, Group 2, Cmpd A 5 mg/kg/dose oral gavage) was 7.6 h. The half-life ([1]; both, beagle, plasma, po, 5 mg/kg, t1/2, mean elimination half-life, dog plasma, Day 8, Group 2, Cmpd A 5 mg/kg/dose oral gavage) was 8.08 h, the half-life ([1]; both, beagle, plasma, po, 5 mg/kg, t1/2, mean elimination half-life, dog plasma, Day 28, Group 2, Cmpd A 5 mg/kg/dose oral gavage) was 8.19 h and the half-life ([1]; both, beagle, plasma, po, mean half-life (t1/2), dog plasma, Day 1, range across groups) was 6.54 to 7.6 h. For the same compound, the “Dose proportionality of increases in mean Cmax and AUC0-24” value (“Dose proportionality of increases” below) ([1]; in vivo) was “less than dose proportional”, the Permeability (Permeability) was “moderate permeability” and the CNS penetration [2] was “limited penetration into the central nervous system (CNS)”. The Tissue distribution [2] was “extensively distributed into tissues”, the P-gp substrate status (P-glycoprotein (P-gp)) was “substrate” and the Bioavailability [3] was “low to moderate bioavailability”. The Clearance [3] was “moderate to high clearance”, the Terminal half-life [3] was “moderate terminal half-life” and the “Volume of distribution at steady state” value [3] was “high volume of distribution at steady state”. For the same compound, the “IRAK4 degradation in spleen and skin” value ([4]; mouse, in vivo) was “dose-dependent degradation of IRAK4 in the spleen and skin”, the Skin thickness ([4]; mouse, in vivo) was “reduction in skin thickness” and the “IL-1β in the skin” value ([4]; p<0.0001) was “significant reduction”. The “IL-6 in the skin” value ([4]; p<0.05, 300 mg/kg only) was “significant reduction”, the BCRP substrate status [5] was “substrate” and the “IC50 (inhibition of proinflammatory cytokine production)” value [6] was “low nM range”. For the same compound, the Main metabolizing enzyme (cytochrome P450 (CYP)) was “primarily metabolized by CYP3A4”, the Metabolic pathway (cytochrome P450 (CYP); in vitro and in vivo) was “underwent oxidative metabolism via cytochrome P450 (CYP)” and the “Inhibition of CYP2C19” value (CYP2C19) was “potential time dependent inhibition (TDI)”. For the same compound, the “Inhibition of CYP3A4” value (CYP3A4) was “potential time dependent inhibition (TDI)”, the “Partitioning into red blood cells” value [7] was “did not significantly partition into red blood cells” and the NOAEL at 4 weeks ([8]; both sexes, beagle, dog, in vivo, dogs, oral gavage once daily, 4 weeks, read-out: no observed adverse effect level (NOAEL)) was 60 mg/kg/day. The “Body weight, body weight gain, food consumption” value ([8]; dog, in vivo) was “No Compound A-related alterations in mean body weight, body weight gain, or food consumption were noted at any dose level”, the “Clinical and ophthalmic observations” value ([8]; dog, in vivo) was “No Compound A-related clinical observations or abnormal ophthalmic observations were noted” and the ECG observation ([8]; dog, in vivo) was “No Compound A-related abnormalities were noted during the dosing phase ECG observation”. For the same compound, the “Hematology, coagulation, clinical chemistry, urinalysis” value ([8]; dog, in vivo) was “No Compound A-related effects in scheduled hematology, coagulation, clinical chemistry, or urinalysis test results were identified”, the “Organ weights and macroscopic observations” value ([8]; dog, in vivo) was “No Compound A-related organ weight differences or macroscopic observations were noted” and the “Microscopic findings (vacuolated macrophages)” value ([8]; dog, in vivo, 30 mg/kg) was “increases of vacuolated macrophages in the small intestine, lymphoid tissues, and lung were considered nonadverse”. The Mortality ([8]; female, beagle, dog, in vivo, 100 mg/kg, 4 day (of dosing phase)) was “One female administered 100 mg/kg/dose was sacrificed in a moribund condition on Day 4 of the dosing phase”, the “Reversal of vacuolated macrophages at recovery sacrifice” value (shortened to “Reversal of vacuolated macrophages”) ([8]; mesenteric lymph node) was “lack of reversal after 2 weeks” and the “Reversal of vacuolated macrophages” value ([8]; small intestine, GALT/Peyer's patches, mandibular lymph nodes, lung, 2-week recovery) was “partial reversal”. For the same compound, the “Reversal of vacuolated macrophages” value ([8]; spleen, 2-week recovery) was “complete reversal”, the Plasma protein binding (Plasma protein binding) was “highly bound to plasma proteins” and the “IRAK4 levels in the spleen” value [9] was “significantly reduced IRAK4 levels in the spleen”. The “Inflammatory exudate (neutrophils, IL-1β)” value [9] was “significantly reduced the inflammatory exudate”, the “Biliary and intestinal excretion” value [10] was “minor to moderate biliary and intestinal excretion as parent drug” and the Renal clearance [10] was “negligible renal clearance”. The Solubility (Solubility) was “low solubility” and the “Inhibition of BCRP efflux” value (BCRP) was “inhibited BCRP efflux”.
In the case of `Cn1c(=O)n([C@@H]2CCC(=O)NC2=O)c2cccc(C#CCOC3CCN(C[C@H]4CC[C@H](n5cc(NC(=O)c6cnn7ccc(N8C[C@H]9C[C@@H]8CO9)nc67)c(C(F)F)n5)CC4)CC3)c21` [Compound C, 5-((1R,4R)-2-oxa-5-azabicyclo[2.2.1]heptan-5-yl)-N-(3-(difluoromethyl)-1-((1r,4R)-4-((4-((3-(1-((R)-2,6-dioxopiperidin-3-yl)-3-methyl-2-oxo-2,3-dihydro-1H-benzo[d]imidazol-4-yl)prop-2-yn-1-yl)oxy)piperidin-1-yl)methyl)cyclohexyl)-1H-pyrazol-4-yl)pyrazolo[1,5-a]pyrimidine-3-carboxamide], the “Potential accumulation” value ([1]; both, beagle, in vivo) is reported as at most 1.86 fold, the “Sex differences” value ([1]; both, beagle, in vivo) is reported as “less than 2 fold” and the Tmax [1, 11] is reported as 4 h. For the same compound, the half-life [1, 18] was 7.65 h, the Tmax [1, 12] was 4 h and the Tmax [1, 13] was 4 h. It also gave a Tmax ([1]; both, beagle, in vivo, po, 60 mg/kg, median Tmax) of 4 h, a Tmax [1, 15] of 6 h and a Tmax [1, 16] of 4 h. The Tmax [1, 17] was 6 h and the “Dose proportionality of increases” value ([1]; in vivo) was “less than dose proportional”.
For `Cn1c(=O)n([C@H]2CCC(=O)NC2=O)c2cccc(C#CCOC3CCN(C[C@H]4CC[C@H](n5cc(NC(=O)c6cnn7ccc(N8C[C@H]9C[C@@H]8CO9)nc67)c(C(F)F)n5)CC4)CC3)c21` [Compound B, 5-((1R,4R)-2-oxa-5-azabicyclo[2.2.1]heptan-5-yl)-N-(3-(difluoromethyl)-1-((1r,4R)-4-((4-((3-(1-((S)-2,6-dioxopiperidin-3-yl)-3-methyl-2-oxo-2,3-dihydro-1H-benzo[d]imidazol-4-yl)prop-2-yn-1-yl)oxy)piperidin-1-yl)methyl)cyclohexyl)-1H-pyrazol-4-yl)pyrazolo[1,5-a]pyrimidine-3-carboxamide], the “Potential accumulation” value ([1]; both, beagle, in vivo) was at most 1.98 fold, the “Sex differences” value ([1]; both, beagle, in vivo) was “less than 2 fold” and the Tmax [1, 11] was 4 h. It also gave a half-life [1, 18] of 7.6 h, a Tmax [1, 12] of 4 h and a Tmax [1, 13] of 4 h. The Tmax [1, 14] was 4 h, the Tmax [1, 15] was 6 h and the Tmax [1, 17] was 6 to 9 h. For the same compound, the “Dose proportionality of increases” value ([1]; in vivo) was “less than dose proportional”.
